Legend:
Experiment in all cases: relative viability (nuclei count vs DMSO), 5 days (fraction); higher = more cells survive
[1] = compound: CC(C)N(CCCNC(=O)Nc1ccc(C(C)(C)C)cc1)C[C@H]1O[C@@H](n2ccc3c(N)ncnc32)[C@H](O)[C@@H]1O + CS(=O)(=O)N1CCN(Cc2cc3nc(-c4cccc5[nH]ncc45)nc(N4CCOCC4)c3s2)CC1 [Pictilisib] (partner 1 µM)
How it was run: (§1)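 Each reported value is a median over duplicate plates. It expresses relative viability: treated-well nuclei count divided by vehicle-well nuclei count. Lung cancer cell lines in 1536-well plates were dosed by pin tool a day after seeding, alone with one drug or with a fixed anchor-drug dose plus five library-drug doses (not always all listed) in √10 steps, and nuclei were counted after 5 days.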

[2] = compound: CC(C)N(CCCNC(=O)Nc1ccc(C(C)(C)C)cc1)C[C@H]1O[C@@H](n2ccc3c(N)ncnc32)[C@H](O)[C@@H]1O + O=C(CCCCCCC(=O)Nc1ccccc1)NO [Vorinostat] (partner 1 µM)
How it was run: as §1

Shikonin + Phenformin = compound: CC(C)=CC[C@@H](O)C1=CC(=O)c2c(O)ccc(O)c2C1=O [Shikonin] + N=C(N)NC(=N)NCCc1ccccc1 [Phenformin] (partner 250 µM)
How it was run: as §1

[3] = compound: CC(C)N(CCCNC(=O)Nc1ccc(C(C)(C)C)cc1)C[C@H]1O[C@@H](n2ccc3c(N)ncnc32)[C@H](O)[C@@H]1O + CC(=O)Nc1cccc(-n2c(=O)n(C3CC3)c(=O)c3c(Nc4ccc(I)cc4F)n(C)c(=O)c(C)c32)c1 [Trametinib] (partner 0.02 µM)
How it was run: as §1

Row | Cell Line | relative viability ([1]; first compound 0.08 µM) | relative viability ([1]; first compound 0.253 µM) | relative viability ([1]; first compound 0.8 µM) | relative viability ([1]; first compound 2.53 µM) | relative viability ([1]; first compound 8 µM) | relative viability ([2]; first compound 0.08 µM) | relative viability ([2]; first compound 0.253 µM) | relative viability ([2]; first compound 0.8 µM) | relative viability ([2]; first compound 2.53 µM) | relative viability ([2]; first compound 8 µM) | relative viability (Shikonin + Phenformin; first compound 0.01 µM) | relative viability (Shikonin + Phenformin; first compound 0.1 µM) | relative viability (Shikonin + Phenformin; first compound 0.3162 µM) | relative viability (Shikonin + Phenformin; first compound 1 µM) | relative viability ([3]; first compound 0.08 µM) | relative viability ([3]; first compound 0.253 µM) | relative viability ([3]; first compound 0.8 µM) | relative viability ([3]; first compound 2.53 µM) | relative viability ([3]; first compound 8 µM)
1 | NCI-H1651 | 0.601 | 0.567 | 0.498 | 0.565 | 0.6 | 0.543 | 0.542 | 0.504 | 0.577 | 0.576 | 0.381 | 0.377 | 0.281 | 0.349 | 0.84 | 0.85 | 0.795 | 0.859 | 0.894
2 | NCI-H1666 | 0.354 | 0.405 | 0.39 | 0.405 | 0.355 | 1.1 | 1 | 1.02 | 1.01 | 0.934 | 0.558 | 0.605 | 0.552 | 0.548 | 0.772 | 0.814 | 0.804 | 0.86 | 0.764
3 | NCI-H1734 | 0.405 | 0.531 | 0.435 | 0.496 | 0.413 | 0.773 | 0.611 | 0.677 | 0.783 | 0.756 | 0.414 | 0.432 | 0.34 | 0.425 | 0.587 | 0.653 | 0.69 | 0.703 | 0.561
4 | NCI-H1755 | 0.469 | 0.478 | 0.357 | 0.452 | 0.394 | 0.769 | 0.74 | 0.666 | 0.756 | 0.723 | 0.696 | 0.668 | 0.659 | 0.55 | 0.758 | 0.736 | 0.719 | 0.733 | 0.771
5 | NCI-H1793 | 0.296 | – | 0.369 | 0.281 | 0.35 | 0.617 | – | 0.761 | 0.773 | 0.574 | 0.424 | 0.417 | 0.41 | 0.404 | 0.394 | – | 0.367 | 0.446 | 0.422
6 | NCI-H1915 | 0.939 | 0.879 | 0.868 | 0.912 | 0.808 | 0.495 | 0.582 | 0.483 | 0.475 | 0.485 | 0.383 | 0.396 | 0.368 | 0.395 | 0.3 | 0.306 | 0.302 | 0.311 | 0.292
7 | NCI-H1944 | 0.314 | 0.292 | 0.285 | 0.384 | 0.366 | 0.508 | 0.48 | 0.484 | 0.637 | 0.546 | 0.198 | 0.189 | 0.209 | 0.205 | 0.362 | 0.39 | 0.372 | 0.439 | 0.448
8 | NCI-H1975 | 0.289 | 0.268 | 0.197 | 0.271 | 0.289 | 0.748 | 0.687 | 0.701 | 0.658 | 0.709 | 0.417 | 0.431 | 0.413 | 0.408 | 0.347 | 0.29 | 0.167 | 0.308 | 0.32
9 | NCI-H1993 | 0.822 | 0.716 | 0.868 | 0.781 | 0.773 | 0.663 | – | 0.661 | 0.748 | 0.818 | 0.504 | 0.579 | 0.555 | 0.499 | 0.609 | – | 0.569 | 0.471 | 0.486
10 | NCI-H2009 | 0.817 | 0.663 | 0.826 | 0.976 | 0.854 | 0.728 | 0.73 | 0.703 | 0.744 | 0.675 | 0.475 | 0.568 | 0.433 | 0.181 | 0.272 | 0.244 | 0.301 | 0.255 | 0.296
11 | NCI-H2023 | 0.265 | 0.215 | 0.219 | 0.333 | 0.217 | 0.605 | 0.608 | 0.576 | 0.584 | 0.45 | 0.352 | 0.386 | 0.452 | 0.341 | 0.536 | 0.579 | 0.559 | 0.495 | 0.459
12 | NCI-H2085 | 0.456 | 0.405 | 0.429 | 0.455 | 0.568 | 0.769 | 0.667 | 0.813 | 0.887 | 0.744 | 0.738 | 0.847 | 0.785 | 0.637 | 0.509 | 0.455 | 0.685 | 0.572 | 0.47
13 | NCI-H2087 | 0.898 | 0.778 | 0.745 | 0.963 | 0.653 | 0.681 | 0.732 | 0.929 | 0.668 | 0.512 | 0.458 | 0.484 | 0.447 | 0.463 | 0.165 | 0.191 | 0.225 | 0.232 | 0.22
14 | NCI-H2126 | 0.499 | 0.476 | 0.415 | 0.529 | 0.48 | 0.672 | 0.702 | 0.825 | 0.721 | 0.711 | 0.518 | 0.571 | 0.565 | 0.513 | 0.551 | 0.572 | 0.555 | 0.577 | 0.58
